Test results: patent publication US20230372227A1, “PRESERVATIVE COMPRISING POLYLYSINE AND CAPRYLYL GLYCERYL ETHER FOR EXTERNAL-USE SKIN FORMULATIONS AND COSMETICS COMPOSITION COMPRISING SAME” (ACTIVON CO., LTD., priority 2020, published 2023)

Tests used:
Experiment in all cases: Minimum inhibitory concentration (MIC) of preservatives
Assay type in all cases: cell-based
[1] = test system: Staphylococcus aureus (ATCC 6538); conditions: Experimental Example 1; growth inhibited by about 95% or more; about 10^6 CFU/ml; about 32° C., 24 to 48 hours
Method: (§1) In this experimental example, in order to evaluate the antimicrobial effect of the preservatives for skin external preparations, prepared in Examples 1 to 5, the minimum inhibitory concentrations (MICs) of the preservative of each Example against bacteria or fungi, including Escherichia coli (ATCC 8739), Pseudomonas aeruginosa (ATCC 9027), Staphylococcus aureus (ATCC 6538), Candida albicans (ATCC 10231), and Aspergillus brasiliensis (ATCC 16404), were measured.
(§2) Specifically, each of the preservatives for skin external preparations, prepared in Examples 1 to 5, was diluted to about 13% to about 25%, and each of the dilutions was further serially diluted 1:1 (10 times). Thereby, samples of various concentrations (about 0.05% to about 10%) for each of the preservatives for skin external preparations, prepared in Examples 1 to 5, were prepared. Each of the obtained samples was added to tryptic soy broth (TSB) medium or potato dextrose agar (PDA) medium. In about 10 ml of the medium to which each sample was added, each type of bacteria or fungi described above was seeded so that the final concentration of the bacteria or fungi was about 10^6 CFU/ml, and then the bacteria were cultured at about 32° C. for about 24 hours to 48 hours, and fungi were cultured at about 25° C. for about 24 hours to 48 hours. Thereafter, the minimum inhibitory concentration (MIC) of each sample capable of inhibiting the growth of the bacteria or fungi by about 95% or more was determined by observing the state of the bacterial or fungal culture medium. The growth of normal bacteria in a medium to which no sample was added was measured and used as a positive control, and the MIC for the growth of bacteria or fungi in a medium to which polyepsilon-lysine, caprylyl glyceryl ether, or propylene glycol was added alone was measured and used as a control.
(§3) In this experimental example, in order to evaluate the antimicrobial effect of a preservative for a skin external application comprising polylysine, caprylyl glyceryl ether and a glycol compound at a weight ratio of 0.1 to 5:10 to 30:65 to 75, the minimum inhibitory concentrations (MICs) of the preservative of each Example against bacteria or fungi, including Escherichia coli (ATCC 8739), Pseudomonas aeruginosa (ATCC 9027), Staphylococcus aureus (ATCC 6538), Candida albicans (ATCC 10231), and Aspergillus brasiliensis (ATCC 16404), were measured. Polyepsilon-lysine was used as the polylysine, and propylene glycol, butylene glycol, or pentylene glycol was used as the glycol compound.
(§4) Each of the preservatives for skin external preparations was diluted to about 10%, and each of the dilutions was further serially diluted 1:1 ([…]). Thereby, samples of various concentrations (about 0.01% to about 10%) for each of the preservatives for skin external preparations were prepared. Each of the obtained samples was added to tryptic soy broth (TSB) medium or potato dextrose agar (PDA) medium. In about 10 ml of the medium to which each sample was added, each type of bacteria or fungi described above was seeded so that the final concentration of the bacteria or fungi was about 10^6 CFU/ml, and then the bacteria were cultured at about 32° C. for about 24 hours to 48 hours, and fungi were cultured at about 25° C. for about 24 hours to 48 hours. […] The growth of normal bacteria in a medium to which no sample was added was measured and used as a positive control.

[2] = test system: Candida albicans (ATCC 10231); conditions: Experimental Example 1; growth inhibited by about 95% or more; about 10^6 CFU/ml; about 25° C., 24 to 48 hours
Method: as §1, §2, §3, §4

[3] = test system: Aspergillus brasiliensis (ATCC 16404); conditions: Experimental Example 1; growth inhibited by about 95% or more; about 10^6 CFU/ml; about 25° C., 24 to 48 hours
Method: as §1, §2, §3, §4

[4] = test system: Escherichia coli (ATCC 8739); conditions: Experimental Example 1; growth inhibited by about 95% or more; about 10^6 CFU/ml; about 32° C., 24 to 48 hours
Method: as §1, §2, §3, §4

[5] = test system: Pseudomonas aeruginosa (ATCC 9027); conditions: Experimental Example 1; growth inhibited by about 95% or more; about 10^6 CFU/ml; about 32° C., 24 to 48 hours
Method: as §1, §2, §3, §4

CC(O)CO (centres unmarked) [Propylene glycol]
>10 %, w/w: MIC (%, w/w) of sample S. aureus [1] | MIC (%, w/w) of sample C. albicans [2] | MIC (%, w/w) of sample A. brasiliensis [3] | MIC (%, w/w) of sample E. coli [4] | MIC (%, w/w) of sample P. aeruginosa [5]
